Series [1] concerns HIV-1 (IIIB). Put plainly: microbe, parasite or virus in culture. The class given is cell-based. The settings on record: Human immunodeficiency virus 1, IIIB, MT4, 120 h, HIV-1 (IIIB) in MT-4 cells, 5 days incubation, Cell Titer Glo; read-out: MT4 EC50. For orientation: In ATP-based viability assays light output follows the ATP content of the culture.
In series [2] the test system is pLAI reporter virus. Put plainly: microbe, parasite or virus in culture. Format: cell-based, HIV. Particulars: Human immunodeficiency virus 1, MT4, 72 h.
Series [3] can be described thus: in vitro. Particulars: human, uninfected MT-4 cells.

Results on 16 compounds are retold here after patent US20250115620A1, “BRIDGED TRICYCLIC CARBAMOYLPYRIDONE COMPOUNDS AND USES THEREOF” (Gilead Sciences, Inc., priority 2022, published 2025).

For orientation: EC50 means the midpoint of the concentration-response curve. Usually CC50 stands for the concentration giving 50% cytotoxicity. A higher CC50 goes with lower toxicity to the cells.

Molecules are shown by their SMILES. Like-named read-outs stand apart in the source and are kept apart here.

For `CC1=NO[C@@]2(CC[C@H](C)N3C[C@H]2n2cc(C(=O)NCc4c(F)cc(F)cc4F)c(=O)c(O)c2C3=O)[C@H]1O` [Example 31, (3′S,4S,5R,7′R)-4,12′-dihydroxy-3,3′-dimethyl-1′,11′-dioxo-N-(2,4,6-trifluorobenzyl)-1′,4′,5′,11′-tetrahydro-3′H,4H,7′H-spiro[isoxazole-5,6′-[2,7]methanopyrido[1,2-a][1,4]diazonine]-10′-carboxamide], the results for the EC50 in series [1], in series [2] (read-out: RLUC 50% HS EC50) and in series [2] (read-out: RLUC CCM EC50) were 1.4 nM, 47.2 nM and 0.3 nM, respectively. The same compound registered a CC50 at 5 days in series [3] of 30 µM.
On to `C[C@H]1CC[C@]2(CC(CCF)=NO2)[C@H]2CN1C(=O)c1c(O)c(=O)c(C(=O)NCc3c(F)cc(F)cc3F)cn12` [Example 69, (3′S,5S,7′R)-3-(2-fluoroethyl)-12′-hydroxy-3′-methyl-1′,11′-dioxo-N-(2,4,6-trifluorobenzyl)-1′,4′,5′,11′-tetrahydro-3′H,4H,7′H-spiro[isoxazole-5,6′-[2,7]methanopyrido[1,2-a][1,4]diazonine]-10′-carboxamide], for which the EC50 in series [1] came to 1.3 nM; in series [2] (read-out: RLUC 50% HS EC50), 94.1 nM; in series [2] (read-out: RLUC CCM EC50), 0.2 nM. This compound also registered a CC50 at 5 days in series [3] of 26.3 µM.
Take `C[C@H]1CC[C@]2(CC(=O)N(CCc3ccccc3)O2)[C@H]2CN1C(=O)c1c(O)c(=O)c(C(=O)NCc3c(F)cc(F)cc3F)cn12` [Example 105, (3′S,5S,7′R)-12′-hydroxy-3′-methyl-1′,3,11′-trioxo-2-phenethyl-N-(2,4,6-trifluorobenzyl)-1′,4′,5′,11′-tetrahydro-3′H,7′H-spiro[isoxazolidine-5,6′-[2,7]methanopyrido[1,2-a][1,4]diazonine]-10′-carboxamide]: the results for the EC50 in series [1], in series [2] (read-out: RLUC 50% HS EC50) and in series [2] (read-out: RLUC CCM EC50) were 1.2 nM, 15.5 nM and 0.3 nM, respectively. Moreover, in series [3], the CC50 at 5 days is at least 50 µM.
Consider `C[C@H]1CC[C@]2(CC(=O)N(Cc3ccc(C#N)cc3)O2)[C@H]2CN1C(=O)c1c(O)c(=O)c(C(=O)NCc3c(F)cc(F)cc3F)cn12` [Example 118, (3′S,5S,7′R)-2-(4-cyanobenzyl)-12′-hydroxy-3′-methyl-1′,3,11′-trioxo-N-(2,4,6-trifluorobenzyl)-1′,4′,5′,11′-tetrahydro-3′H,7′H-spiro[isoxazolidine-5,6′-[2,7]methanopyrido[1,2-a][1,4]diazonine]-10′-carboxamide], for which the 50% effective concentration (EC50) in series [1] was 2.6 nM; in series [2] (read-out: RLUC 50% HS EC50) it was 0.4 nM; in series [2] (read-out: RLUC CCM EC50) it was 0.4 nM. The same compound came in with a 50% cytotoxic concentration (CC50) at 5 days in series [3] of at least 50 µM.
`CC1=NO[C@@]2(CC[C@H](C)N3C[C@H]2n2cc(C(=O)NCc4ccc(F)c(Cl)c4F)c(=O)c(O)c2C3=O)[C@H]1O` [Example 35, (3′S,4S,5R,7′R)—N-(3-chloro-2,4-difluorobenzyl)-4,12′-dihydroxy-3,3′-dimethyl-1′,11′-dioxo-1′,4′,5′,11′-tetrahydro-3′H,4H,7′H-spiro[isoxazole-5,6′-[2,7]methanopyrido[1,2-a][1,4]diazonine]-10′-carboxamide]: the EC50 in series [1] was found to be 0.9 nM; in series [2] (read-out: RLUC 50% HS EC50) it was 102 nM; in series [2] (read-out: RLUC CCM EC50), 0.3 nM. Besides, the CC50 at 5 days in series [3] worked out at 20.3 µM.
The corresponding values for `C[C@H]1CC[C@]2(CC(n3cnnc3)=NO2)[C@H]2CN1C(=O)c1c(O)c(=O)c(C(=O)NCc3c(F)cc(F)cc3F)cn12` [Example 76, (3′S,5S,7′R)-12′-hydroxy-3′-methyl-1′,11′-dioxo-3-(4H-1,2,4-triazol-4-yl)-N-(2,4,6-trifluorobenzyl)-1′,4′,5′,11′-tetrahydro-3′H,4H,7′H-spiro[isoxazole-5,6′-[2,7]methanopyrido[1,2-a][1,4]diazonine]-10′-carboxamide] are 2.2 nM, 3.3 nM, 0.4 nM and 10.1 µM.
The corresponding values for `C[C@H]1CC[C@]2(CC(S(C)(=O)=O)=NO2)[C@H]2CN1C(=O)c1c(O)c(=O)c(C(=O)NCc3c(F)cc(F)cc3F)cn12` [Example 154, (3′S,5S,7′R)-12′-hydroxy-3′-methyl-3-(methylsulfonyl)-1′,11′-dioxo-N-(2,4,6-trifluorobenzyl)-1′,4′,5′,11′-tetrahydro-3′H,4H,7′H-spiro[isoxazole-5,6′-[2,7]methanopyrido[1,2-a][1,4]diazonine]-10′-carboxamide] are 4.2 nM, 22.1 nM, 1.2 nM and 4.14 µM.
The corresponding values for `C[C@H]1CC[C@]2(CC(=O)N(Cc3cnn(C)n3)O2)[C@H]2CN1C(=O)c1c(O)c(=O)c(C(=O)NCc3c(F)cc(F)cc3F)cn12` [Example 104, (3′S,5S,7′R)-12′-hydroxy-3′-methyl-2-((2-methyl-2H-1,2,3-triazol-4-yl)methyl)-1′,3,11′-trioxo-N-(2,4,6-trifluorobenzyl)-1′,4′,5′,11′-tetrahydro-3′H,7′H-spiro[isoxazolidine-5,6′-[2,7]methanopyrido[1,2-a][1,4]diazonine]-10′-carboxamide] are 2.6 nM, 0.3 nM, 0.9 nM and at least 50 µM.
Turning to `CNC1=NO[C@@]2(CC[C@H](C)N3C[C@H]2n2cc(C(=O)NCc4c(F)cc(F)cc4F)c(=O)c(O)c2C3=O)C1` [Example 51, (3′S,5S,7′R)-12′-hydroxy-3′-methyl-3-(methylamino)-1′,11′-dioxo-N-(2,4,6-trifluorobenzyl)-1′,4′,5′,11′-tetrahydro-3′H,4H,7′H-spiro[isoxazole-5,6′-[2,7]methanopyrido[1,2-a][1,4]diazonine]-10′-carboxamide], the EC50 in series [1] is 1.3 nM; in series [2] (read-out: RLUC 50% HS EC50), 5.2 nM; in series [2] (read-out: RLUC CCM EC50) it was 0.3 nM. Also, in series [3], it took 41.1 µM to reach half-maximal cytotoxicity (CC50 at 5 days).
The corresponding values for `COC[C@H]1CO[C@]2(CC[C@H](C)N3C[C@H]2n2cc(C(=O)NCc4c(F)cc(F)cc4F)c(=O)c(O)c2C3=O)O1` [Example 167, (2R,3′S,4S,7′R)-12′-hydroxy-4-(methoxymethyl)-3′-methyl-1′,11′-dioxo-N-(2,4,6-trifluorobenzyl)-1′,4′,5′,11′-tetrahydro-3′H,7′H-spiro[[1,3]dioxolane-2,6′-[2,7]methanopyrido[1,2-a][1,4]diazonine]-10′-carboxamide] are 1.7 nM, 8.7 nM, 0.6 nM and 35.8 µM.
For the compound `C[C@H]1CC[C@]2(CC(CCCCCl)=NO2)[C@H]2CN1C(=O)c1c(O)c(=O)c(C(=O)NCc3c(F)cc(F)cc3F)cn12` [Example 10, (3′S,5S,7′R)-3-(4-chlorobutyl)-12′-hydroxy-3′-methyl-1′,11′-dioxo-N-(2,4,6-trifluorobenzyl)-1′,4′,5′,11′-tetrahydro-3′H,4H,7′H-spiro[isoxazole-5,6′-[2,7]methanopyrido[1,2-a][1,4]diazonine]-10′-carboxamide], the values for the 50% effective concentration (EC50) in series [1], in series [2] (read-out: RLUC 50% HS EC50) and in series [2] (read-out: RLUC CCM EC50) were 1.7 nM, 5.5 nM and 1 nM, respectively. The midpoint of cytotoxicity in series [3], the CC50 at 5 days, lay at 5.86 µM.
For `C[C@H]1CC[C@]2(CC(C3CC3)=NO2)[C@H]2CN1C(=O)c1c(O)c(=O)c(C(=O)NCc3ccc(F)cc3F)cn12` [Example 15, (3′S,5S,7′R)-3-cyclopropyl-N-(2,4-difluorobenzyl)-12′-hydroxy-3′-methyl-1′,11′-dioxo-1′,4′,5′,11′-tetrahydro-3′H,4H,7′H-spiro[isoxazole-5,6′-[2,7]methanopyrido[1,2-a][1,4]diazonine]-10′-carboxamide] the same measures were 2.4 nM, 3.8 nM, 0.8 nM and at least 50 µM.
Regarding `CO[C@H]1CS[C@@]2(CC[C@H](C)N3C[C@H]2n2cc(C(=O)NCc4c(F)cc(F)cc4F)c(=O)c(O)c2C3=O)O1` (single isomer, unassigned) [170 (peak 3)], the EC50 in series [1] was found to be 1.2 nM; in series [2] (read-out: RLUC 50% HS EC50), 43.4 nM; in series [2] (read-out: RLUC CCM EC50) it was 0.3 nM. It took 8.24 µM to reach half-maximal cytotoxicity in series [3] (CC50 at 5 days).
For `C[C@H]1CCC2(OCCO2)[C@H]2CN1C(=O)c1c(O)c(=O)c(C(=O)NCc3ccc(F)cc3F)cn12` [Example 129, (3′S,7′R)—N-(2,4-difluorobenzyl)-12′-hydroxy-3′-methyl-1′,11′-dioxo-1′,4′,5′,11′-tetrahydro-3′H,7′H-spiro[[1,3]dioxolane-2,6′-[2,7]methanopyrido[1,2-a][1,4]diazonine]-10′-carboxamide] the same measures were 0.5 nM, 8 nM, 0.2 nM and 27.4 µM.
The corresponding values for `C[C@H]1CC[C@@]2(CC(=O)N(C)C2)[C@H]2CN1C(=O)c1c(O)c(=O)c(C(=O)NCc3c(F)cc(F)cc3F)cn12` [Example 62, (3S,3′S,7′S)-12′-hydroxy-1,3′-dimethyl-1′,5,11′-trioxo-N-(2,4,6-trifluorobenzyl)-1′,4′,5′,11′-tetrahydro-3′H,7′H-spiro[pyrrolidine-3,6′-[2,7]methanopyrido[1,2-a][1,4]diazonine]-10′-carboxamide] are 31.1 nM, 13.4 nM, 7.8 nM and at least 50 µM.
Turning to `[2H]C([2H])([2H])OC1=NO[C@@]2(CC[C@H](C)N3C[C@H]2n2cc(C(=O)NCc4c(F)cc(F)cc4F)c(=O)c(O)c2C3=O)C1([2H])[2H]` [Example 39, (3′S,5S,7′R)-12′-hydroxy-3-(methoxy-d3)-3′-methyl-1′,11′-dioxo-N-(2,4,6-trifluorobenzyl)-1′,4′,5′,11′-tetrahydro-3′H,4H,7′H-spiro[isoxazole-5,6′-[2,7]methanopyrido[1,2-a][1,4]diazonine]-4,4-d2-10′-carboxamide], the EC50 in series [1] amounted to 1 nM; in series [2] (read-out: RLUC 50% HS EC50), 35.4 nM; in series [2] (read-out: RLUC CCM EC50), 0.3 nM. Further, it took 23.5 µM to reach half-maximal cytotoxicity in series [3] (CC50 at 5 days).
